Test results: ChEMBL document CHEMBL1201862, “PubChem BioAssay data set” (2004)
The source made the active and inactive calls.

Legend:
[1] = target: T1, Delta-type opioid receptor (Homo sapiens, UniProt P41143); test: HTS Image-Based Screen for Antagonists of the DOR Receptor. [Related pubchem assays (depositor defined):AID1777, AID1785, AID1786, AID2133]; type: functional
Mu-type opioid receptor = Mu-type opioid receptor (Homo sapiens, UniProt P35372); test: HTS Image-Based Screen for Agonists of the MOR Receptor. [Related pubchem assays (depositor defined):AID1777, AID1785, AID1786, AID2133]; type: functional;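 also: imaging of beta-arrestin GFP recruitment into spots after receptor activation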
[2] = target: T1, Delta-type opioid receptor; test: HTS Image-Based Screen for Agonists of the DOR Receptor. [Related pubchem assays (depositor defined):AID1777, AID1786, AID2133]; type: functional
[3] = target: T2, Kappa-type opioid receptor (Homo sapiens, UniProt P41145); type: functional
Beta-galactosidase = Beta-galactosidase (Escherichia coli, UniProt Q8VNN2); type: functional
[4] = target: T2, Kappa-type opioid receptor; type: functional; remark: listed apart in the source
[5] = target: T3, Short transient receptor potential channel 4 (Mus musculus, UniProt Q9QUQ5); test: mouse TRPC4 channel inhibitors, dose response, cell-based, HEK293 TRPC4/mu-opioid, Fluo-4 calcium (AID 434942); type: functional;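 also: potency of inhibitors blocking the TRPC4 calcium response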
T3 sequence (Q9QUQ5 whole entry): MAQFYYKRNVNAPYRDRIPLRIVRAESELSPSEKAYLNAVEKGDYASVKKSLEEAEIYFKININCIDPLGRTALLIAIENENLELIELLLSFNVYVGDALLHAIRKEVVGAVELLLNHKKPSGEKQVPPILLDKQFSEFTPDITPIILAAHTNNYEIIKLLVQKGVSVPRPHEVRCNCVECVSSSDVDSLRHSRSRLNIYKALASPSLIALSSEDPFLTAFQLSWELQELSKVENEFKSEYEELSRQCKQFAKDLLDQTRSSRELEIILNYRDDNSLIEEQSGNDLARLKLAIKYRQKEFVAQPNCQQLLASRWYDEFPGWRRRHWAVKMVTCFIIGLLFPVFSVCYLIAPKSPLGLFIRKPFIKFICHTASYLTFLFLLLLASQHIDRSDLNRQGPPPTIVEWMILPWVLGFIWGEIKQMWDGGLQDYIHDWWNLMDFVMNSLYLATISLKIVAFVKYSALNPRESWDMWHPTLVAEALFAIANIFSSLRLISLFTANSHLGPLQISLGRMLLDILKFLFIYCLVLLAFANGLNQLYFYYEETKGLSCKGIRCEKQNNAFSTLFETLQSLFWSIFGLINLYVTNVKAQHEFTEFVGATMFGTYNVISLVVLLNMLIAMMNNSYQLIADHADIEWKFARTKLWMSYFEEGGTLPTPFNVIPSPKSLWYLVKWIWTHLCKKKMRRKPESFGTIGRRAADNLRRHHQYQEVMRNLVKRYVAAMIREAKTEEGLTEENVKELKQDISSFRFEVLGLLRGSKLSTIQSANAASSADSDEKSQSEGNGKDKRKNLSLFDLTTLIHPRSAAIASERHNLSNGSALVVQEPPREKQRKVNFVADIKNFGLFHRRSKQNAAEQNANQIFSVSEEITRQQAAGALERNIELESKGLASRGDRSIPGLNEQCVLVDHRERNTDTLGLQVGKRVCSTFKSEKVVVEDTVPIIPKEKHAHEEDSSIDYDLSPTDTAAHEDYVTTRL

Protein skinhead-1 = target: T4, Protein skinhead-1 (Caenorhabditis elegans, UniProt P34707); type: functional
T4 sequence (P34707 whole entry): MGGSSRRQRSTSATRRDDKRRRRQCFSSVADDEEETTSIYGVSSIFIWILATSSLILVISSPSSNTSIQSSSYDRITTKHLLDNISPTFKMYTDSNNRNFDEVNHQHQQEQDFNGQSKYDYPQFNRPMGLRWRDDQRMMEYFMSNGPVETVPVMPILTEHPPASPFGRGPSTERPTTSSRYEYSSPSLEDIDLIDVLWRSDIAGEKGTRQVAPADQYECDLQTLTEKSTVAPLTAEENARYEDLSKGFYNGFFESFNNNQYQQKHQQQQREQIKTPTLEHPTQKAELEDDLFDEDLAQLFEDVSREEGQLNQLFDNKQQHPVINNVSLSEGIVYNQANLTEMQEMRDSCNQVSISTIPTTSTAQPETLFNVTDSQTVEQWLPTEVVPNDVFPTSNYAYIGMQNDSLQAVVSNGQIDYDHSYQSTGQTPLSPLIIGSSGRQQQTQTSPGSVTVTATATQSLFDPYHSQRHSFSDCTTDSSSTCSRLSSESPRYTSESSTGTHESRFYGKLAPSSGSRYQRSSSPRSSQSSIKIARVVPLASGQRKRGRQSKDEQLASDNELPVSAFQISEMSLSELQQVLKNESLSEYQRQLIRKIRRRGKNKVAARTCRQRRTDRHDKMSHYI

[6] = NIH-3T3 fibroblast cytotoxicity, dose response, cytotoxicity control, cell-based, fluorescence, Alamar Blue, secondary assay (AID 2327); type: functional;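 also: NIH-3T3 mouse fibroblasts cultured with fluconazole at 8 µg/mL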
[7] = Luminescence Cell-Based Dose Confirmation HTS to Identify Activators of 5'UTR Stem-Loop Driven Alpha-Synuclein mRNA Translation in H4 Neuroglioblastoma Cells. [Related pubchem assays: 1829 (Project Summary), 1814 (Primary HTS)]; type: functional
[8] = Luminescence Cell-Based Dose Response HTS to Identify Activators of Luciferase Translation or Activity in H4 […] Cells. [Related pubchem assays: 1829 (Project Summary), 1814 (Primary HTS)]; type: functional
[9] = test system: Streptococcus sp. 'group A'; test: growth inhibition of control SK(-) GAS strain, dose response, counter-screen for streptokinase expression inhibitor project, luminescence, kanamycin, BacTiterGlo, confirmation (AID 1900); type: functional, organism-based
[10] = target: T5, Tyrosine-protein phosphatase non-receptor type 7 (Homo sapiens, UniProt P35236); type: functional
T5 sequence (P35236 whole entry): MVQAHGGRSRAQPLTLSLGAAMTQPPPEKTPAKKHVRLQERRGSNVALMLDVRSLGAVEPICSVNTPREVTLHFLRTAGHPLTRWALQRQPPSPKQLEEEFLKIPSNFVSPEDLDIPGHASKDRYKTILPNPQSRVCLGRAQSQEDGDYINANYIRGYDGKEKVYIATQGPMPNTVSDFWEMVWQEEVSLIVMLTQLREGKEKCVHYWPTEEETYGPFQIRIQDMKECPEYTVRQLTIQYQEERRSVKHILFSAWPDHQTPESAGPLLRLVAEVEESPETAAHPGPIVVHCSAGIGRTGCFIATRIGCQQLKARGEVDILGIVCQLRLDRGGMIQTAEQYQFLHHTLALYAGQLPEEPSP

H4 = test: Luminescence Cell-Based Dose Response HTS to Identify Activators of 5'UTR Stem-Loop Driven Prion Protein mRNA Translation in H4 Neuroglioblastoma Cells. [Related pubchem assays: 1829 (Project Summary), 1814 (Primary HTS)]; type: functional; details: Homo sapiens
Streptokinase A = target: T6, Streptokinase A (Streptococcus pyogenes serotype M1, UniProt P10520); test: S. pyogenes streptokinase expression inhibitors, potency, dose response, plasminogen activation absorbance, OD405 (AID 1914); type: functional, Streptococcus pyogenes M1 GAS;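 also: secreted streptokinase activity via plasminogen activation per viability signal from cell pellet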
T6 sequence (P10520 whole entry): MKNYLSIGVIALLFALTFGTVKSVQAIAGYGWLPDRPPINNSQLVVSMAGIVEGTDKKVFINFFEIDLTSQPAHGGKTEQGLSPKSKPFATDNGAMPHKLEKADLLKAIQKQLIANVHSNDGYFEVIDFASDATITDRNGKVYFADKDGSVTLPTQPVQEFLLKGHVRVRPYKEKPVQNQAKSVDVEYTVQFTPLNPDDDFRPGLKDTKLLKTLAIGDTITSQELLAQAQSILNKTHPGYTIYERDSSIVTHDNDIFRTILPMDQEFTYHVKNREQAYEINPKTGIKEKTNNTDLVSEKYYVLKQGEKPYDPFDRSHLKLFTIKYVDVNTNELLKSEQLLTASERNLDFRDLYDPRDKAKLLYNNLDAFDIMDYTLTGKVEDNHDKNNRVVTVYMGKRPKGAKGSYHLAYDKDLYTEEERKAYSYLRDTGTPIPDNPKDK

[11] = C. albicans growth with fluconazole, confirmation, fluorescence, retest (AID 2467); type: functional, cell-based
[12] = target: T7, Calpain-2 catalytic subunit (Sus scrofa, UniProt P43367); test: pig calpain II inhibitor potency, dose response, biochemical, fluorogenic peptide substrate (AID 1420); type: functional
T7 sequence (P43367 whole entry): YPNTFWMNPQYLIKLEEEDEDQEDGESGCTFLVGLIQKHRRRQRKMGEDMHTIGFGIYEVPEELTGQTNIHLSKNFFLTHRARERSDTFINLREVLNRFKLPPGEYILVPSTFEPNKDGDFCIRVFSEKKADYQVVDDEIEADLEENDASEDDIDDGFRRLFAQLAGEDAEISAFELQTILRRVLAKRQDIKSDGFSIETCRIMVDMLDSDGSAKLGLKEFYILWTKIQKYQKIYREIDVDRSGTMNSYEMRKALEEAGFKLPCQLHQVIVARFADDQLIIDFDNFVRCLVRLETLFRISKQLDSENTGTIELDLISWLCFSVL

[13] = target: T8, Dual specificity protein phosphatase 6 (Rattus norvegicus, UniProt Q64346); test: MKP-3 phosphatase inhibitors, primary screen, biochemical, rat enzyme, in vitro (AID 425)
T8 sequence (Q64346 whole entry): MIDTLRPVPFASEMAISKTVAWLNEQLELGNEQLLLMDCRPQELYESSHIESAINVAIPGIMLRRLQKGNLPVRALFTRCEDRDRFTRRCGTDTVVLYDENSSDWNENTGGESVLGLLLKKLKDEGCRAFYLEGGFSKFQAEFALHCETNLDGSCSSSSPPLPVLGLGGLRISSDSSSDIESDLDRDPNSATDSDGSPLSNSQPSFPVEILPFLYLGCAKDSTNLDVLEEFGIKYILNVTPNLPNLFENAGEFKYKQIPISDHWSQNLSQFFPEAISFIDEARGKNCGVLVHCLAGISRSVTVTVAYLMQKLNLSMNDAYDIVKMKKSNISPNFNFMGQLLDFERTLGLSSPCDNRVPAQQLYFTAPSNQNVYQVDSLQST

Streptococcus = test: Group A Streptococcus viability loss, dose response, counter-screen for streptokinase expression inhibitor project, luminescence, BacTiterGlo (AID 1915); type: functional, organism-based;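 also: potency for reduction of bacterial viability or growth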
[14] = target: Mitogen-activated protein kinase 10 (Homo sapiens, UniProt P53779); test: Dose response biochemical screening assay for inhibitors of c-Jun N-Terminal Kinase 3 (JNK3). [Related pubchem assays: 746 ]
[15] = target: T9, Tyrosine-protein phosphatase non-receptor type 22 (Homo sapiens, UniProt Q9Y2R2); type: functional
T9 sequence (Q9Y2R2 whole entry): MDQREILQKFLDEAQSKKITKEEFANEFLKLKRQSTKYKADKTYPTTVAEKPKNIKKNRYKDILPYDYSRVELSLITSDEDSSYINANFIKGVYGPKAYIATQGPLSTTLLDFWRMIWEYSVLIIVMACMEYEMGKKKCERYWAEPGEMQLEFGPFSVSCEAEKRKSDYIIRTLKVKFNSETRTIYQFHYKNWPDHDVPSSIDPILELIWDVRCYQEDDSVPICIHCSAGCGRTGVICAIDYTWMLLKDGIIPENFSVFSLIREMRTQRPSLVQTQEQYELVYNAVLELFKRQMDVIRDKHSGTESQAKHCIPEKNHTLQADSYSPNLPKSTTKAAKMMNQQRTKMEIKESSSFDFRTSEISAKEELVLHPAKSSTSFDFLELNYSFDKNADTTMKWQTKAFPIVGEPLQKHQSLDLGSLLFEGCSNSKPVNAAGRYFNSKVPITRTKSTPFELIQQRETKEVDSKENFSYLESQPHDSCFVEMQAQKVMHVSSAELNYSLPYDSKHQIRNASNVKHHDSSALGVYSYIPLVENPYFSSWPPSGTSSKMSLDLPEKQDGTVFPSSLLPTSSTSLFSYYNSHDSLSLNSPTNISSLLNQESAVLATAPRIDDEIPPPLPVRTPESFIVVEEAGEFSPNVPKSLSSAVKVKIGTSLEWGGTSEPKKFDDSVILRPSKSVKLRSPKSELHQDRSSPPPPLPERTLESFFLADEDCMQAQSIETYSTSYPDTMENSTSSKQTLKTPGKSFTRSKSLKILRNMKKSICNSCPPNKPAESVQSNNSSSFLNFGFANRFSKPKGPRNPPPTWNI

[16] = target: T9, Tyrosine-protein phosphatase non-receptor type 22; type: functional; remark: listed apart in the source
[17] = target: T10, Mannose-6-phosphate isomerase (Homo sapiens, UniProt P34949); test: PMI enzyme inhibitors, confirmation, biochemical, fluorescence intensity (AID 1535)
T10 sequence (P34949 whole entry): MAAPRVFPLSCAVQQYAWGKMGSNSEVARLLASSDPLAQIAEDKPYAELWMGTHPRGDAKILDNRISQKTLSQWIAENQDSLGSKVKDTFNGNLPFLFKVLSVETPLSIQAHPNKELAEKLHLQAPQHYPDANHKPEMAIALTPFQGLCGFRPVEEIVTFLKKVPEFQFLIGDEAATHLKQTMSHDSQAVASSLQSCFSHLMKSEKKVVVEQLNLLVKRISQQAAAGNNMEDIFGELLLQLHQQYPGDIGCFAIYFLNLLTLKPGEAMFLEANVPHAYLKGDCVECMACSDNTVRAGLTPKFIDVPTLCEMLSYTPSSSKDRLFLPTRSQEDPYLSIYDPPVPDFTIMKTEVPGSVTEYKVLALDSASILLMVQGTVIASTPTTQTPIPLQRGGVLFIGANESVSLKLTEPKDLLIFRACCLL

Phosphomannomutase 2 = Phosphomannomutase 2 (Homo sapiens, UniProt O15305); test: Counter screen SAR assay for PMM2 inhibitors via a fluorescence intensity assay. [Related pubchem assays (depositor defined):AID1545, AID1574]
Phosphomannomutase 2, sequence (O15305 whole entry): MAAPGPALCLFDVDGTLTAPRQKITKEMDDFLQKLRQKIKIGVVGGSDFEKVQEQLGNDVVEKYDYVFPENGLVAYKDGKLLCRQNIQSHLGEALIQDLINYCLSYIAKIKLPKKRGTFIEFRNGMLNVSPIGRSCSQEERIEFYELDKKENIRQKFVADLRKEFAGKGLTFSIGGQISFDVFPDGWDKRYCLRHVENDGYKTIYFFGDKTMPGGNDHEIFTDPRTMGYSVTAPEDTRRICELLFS

T2 sequence (P41145 whole entry): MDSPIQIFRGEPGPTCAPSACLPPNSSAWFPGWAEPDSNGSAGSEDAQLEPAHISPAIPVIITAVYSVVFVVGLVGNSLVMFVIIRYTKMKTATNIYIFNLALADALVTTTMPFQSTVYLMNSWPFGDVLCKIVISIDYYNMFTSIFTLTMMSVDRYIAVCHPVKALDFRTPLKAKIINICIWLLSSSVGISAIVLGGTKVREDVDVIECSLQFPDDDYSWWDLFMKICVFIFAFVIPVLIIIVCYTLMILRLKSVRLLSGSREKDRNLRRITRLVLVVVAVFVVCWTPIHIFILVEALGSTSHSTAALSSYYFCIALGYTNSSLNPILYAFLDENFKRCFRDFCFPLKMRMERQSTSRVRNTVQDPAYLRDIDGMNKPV
T1 sequence (P41143 whole entry): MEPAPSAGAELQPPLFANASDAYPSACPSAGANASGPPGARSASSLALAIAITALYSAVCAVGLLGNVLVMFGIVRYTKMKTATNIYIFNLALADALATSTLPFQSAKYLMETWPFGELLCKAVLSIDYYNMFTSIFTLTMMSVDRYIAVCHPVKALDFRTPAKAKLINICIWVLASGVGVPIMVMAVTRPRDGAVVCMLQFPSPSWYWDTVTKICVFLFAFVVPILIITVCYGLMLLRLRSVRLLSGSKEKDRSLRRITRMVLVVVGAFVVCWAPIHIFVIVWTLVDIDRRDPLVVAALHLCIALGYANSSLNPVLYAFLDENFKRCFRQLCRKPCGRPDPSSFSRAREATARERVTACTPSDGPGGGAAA
Mitogen-activated protein kinase 10, sequence (P53779 whole entry): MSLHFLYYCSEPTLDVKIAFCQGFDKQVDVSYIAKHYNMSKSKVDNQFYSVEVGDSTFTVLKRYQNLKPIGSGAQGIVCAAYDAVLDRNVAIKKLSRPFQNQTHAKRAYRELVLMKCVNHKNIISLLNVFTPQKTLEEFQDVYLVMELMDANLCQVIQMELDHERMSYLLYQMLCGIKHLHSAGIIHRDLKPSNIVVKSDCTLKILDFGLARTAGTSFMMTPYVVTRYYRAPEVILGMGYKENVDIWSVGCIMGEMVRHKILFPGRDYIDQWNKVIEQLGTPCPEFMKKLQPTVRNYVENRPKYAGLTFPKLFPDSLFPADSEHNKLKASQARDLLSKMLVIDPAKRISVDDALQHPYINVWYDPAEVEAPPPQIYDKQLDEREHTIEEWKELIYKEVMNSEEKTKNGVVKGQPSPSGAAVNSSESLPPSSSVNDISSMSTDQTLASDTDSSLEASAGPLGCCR
Mu-type opioid receptor, sequence (P35372 whole entry): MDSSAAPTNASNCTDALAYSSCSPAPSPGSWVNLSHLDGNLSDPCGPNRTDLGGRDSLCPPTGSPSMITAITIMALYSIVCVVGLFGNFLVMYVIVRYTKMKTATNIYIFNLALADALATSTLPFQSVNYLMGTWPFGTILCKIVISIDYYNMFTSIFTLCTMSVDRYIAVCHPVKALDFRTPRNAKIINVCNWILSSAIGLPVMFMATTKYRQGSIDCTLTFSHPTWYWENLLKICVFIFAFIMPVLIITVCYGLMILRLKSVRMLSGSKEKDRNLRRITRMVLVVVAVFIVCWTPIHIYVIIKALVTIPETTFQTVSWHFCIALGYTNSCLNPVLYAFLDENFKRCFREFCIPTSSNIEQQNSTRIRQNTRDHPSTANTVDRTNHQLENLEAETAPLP
Beta-galactosidase, sequence (Q8VNN2 whole entry): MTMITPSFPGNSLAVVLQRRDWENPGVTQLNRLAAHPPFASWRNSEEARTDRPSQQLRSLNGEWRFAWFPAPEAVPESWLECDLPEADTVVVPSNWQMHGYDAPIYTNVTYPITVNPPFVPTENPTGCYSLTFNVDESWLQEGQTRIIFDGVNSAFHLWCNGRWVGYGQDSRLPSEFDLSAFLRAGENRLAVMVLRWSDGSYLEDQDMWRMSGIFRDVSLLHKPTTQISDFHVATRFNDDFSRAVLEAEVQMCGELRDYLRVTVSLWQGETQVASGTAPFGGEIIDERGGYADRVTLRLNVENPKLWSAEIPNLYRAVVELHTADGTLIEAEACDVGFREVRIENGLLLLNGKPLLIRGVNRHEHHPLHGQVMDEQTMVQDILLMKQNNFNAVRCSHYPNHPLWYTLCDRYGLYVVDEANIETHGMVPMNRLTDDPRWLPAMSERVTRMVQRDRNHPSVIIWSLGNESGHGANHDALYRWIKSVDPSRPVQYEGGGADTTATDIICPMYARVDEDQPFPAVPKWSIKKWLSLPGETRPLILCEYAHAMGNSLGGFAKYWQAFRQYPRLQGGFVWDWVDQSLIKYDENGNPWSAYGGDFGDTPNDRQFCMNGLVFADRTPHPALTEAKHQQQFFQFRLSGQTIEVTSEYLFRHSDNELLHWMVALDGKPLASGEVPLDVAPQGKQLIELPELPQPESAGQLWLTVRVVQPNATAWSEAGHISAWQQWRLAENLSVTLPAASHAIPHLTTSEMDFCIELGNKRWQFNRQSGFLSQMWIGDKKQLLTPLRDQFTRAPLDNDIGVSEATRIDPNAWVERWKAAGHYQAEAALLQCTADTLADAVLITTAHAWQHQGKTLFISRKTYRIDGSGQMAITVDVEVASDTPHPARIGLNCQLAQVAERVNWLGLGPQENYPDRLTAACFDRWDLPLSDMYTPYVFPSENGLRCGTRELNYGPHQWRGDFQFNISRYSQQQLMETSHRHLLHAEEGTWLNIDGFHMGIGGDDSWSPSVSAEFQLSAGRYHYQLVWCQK

## CCOc1cc(CNC2CCCC2)cc(Cl)c1OCc1ccccc1
[1]
  IC50: > 32 µM (inactive)
Mu-type opioid receptor
  EC50: > 32 µM (inactive)
[2]
  EC50: > 32 µM (inactive)
[3]
  IC50: 7.88 µM (active)
Beta-galactosidase
  EC50: > 31.5 µM (inactive)
[4]
  IC50: 2.57 µM
[5]
  EC50: 4.22 µM (active)
Protein skinhead-1
  IC50: < 3.13 µM (active)

## CCn1nc(-c2ccccc2)nc2c(=O)n(C)c(=O)nc1-2
[6]
  EC50: 1.8 µM (inconclusive)
[7]
  EC50: > 120 µM (not active)
[8]
  EC50: > 30 µM (not active)
[9]
  EC50: 2.54 µM (active)
[10]
  IC50: 8.91 µM (active)
H4
  EC50: > 120 µM (not active)
Streptokinase A
  EC50: > 150 µM (not active)
[11]
  EC50: 0.442 µM (active)
[12]
  IC50: 6.11 µM (not active)
[13]
  IC50: 0.239 µM (active)
Streptococcus
  EC50: 9.43 µM (active)
[14]
  IC50: 36.3 µM (not active)
[15]
  IC50: 13.2 µM (active)
[16]
  IC50: 10.4 µM (active)

## Clc1ccc(Nc2ccccc2/N=c2\ssnc2Cl)cc1
[17]
  IC50: 9.77 µM (active)
Phosphomannomutase 2
  IC50: > 100 µM (inactive)

## Fc1ccc(/N=c2\ssnc2Cl)cc1
[17]
  IC50: 11.6 µM (active)
Phosphomannomutase 2
  IC50: > 100 µM (inactive)
